{"source": "ChEMBL document CHEMBL1152576", "about": "“E-Combretastatin and E-resveratrol structural modifications: antimicrobial and cancer cell growth inhibitory beta-E-nitrostyrenes” (Bioorg Med Chem, 2009)", "note": "Calls of active or inactive are those of the source. No cut-off for these calls is given here.", "data": [{"system": "SF-268", "assay": "(§1) Cytotoxicity against human SF268 cells after 48 hrs by sulforhodamine B assay", "format": "functional", "conditions": "not given", "values": [{"smiles": "COc1ccc(/C=C/c2cc(OC)c(OC)c(OC)c2)cc1O", "note": "[E-COMBRETASTATIN A-4]", "GI50": "inactive"}]}, {"system": "SF-268", "assay": "as §1", "format": "functional", "conditions": "SF-268, 48 h", "units": {"GI50": "µg/mL"}, "values": [{"smiles": "Oc1ccc(/C=C\\c2cc(O)cc(O)c2)cc1", "note": "[CIS-RESVERATROL]", "GI50": 5}]}, {"system": "SF-295", "assay": "Cytotoxicity against human SF295 cells after 48 hrs by sulforhodamine B assay", "format": "functional", "conditions": "not given", "values": [{"smiles": "Oc1ccc(/C=C\\c2cc(O)cc(O)c2)cc1", "note": "[CIS-RESVERATROL]", "GI50": "inactive"}, {"smiles": "COc1ccc(/C=C\\c2cc(OC)c(OC)c(OC)c2)cc1O", "note": "[COMBRETASTATIN A4]", "GI50": "inactive"}, {"smiles": "COc1ccc(/C=C/c2cc(OC)c(OC)c(OC)c2)cc1O", "note": "[E-COMBRETASTATIN A-4]", "GI50": "inactive"}, {"smiles": "Oc1ccc(/C=C/c2cc(O)cc(O)c2)cc1", "note": "[RESVERATROL]", "GI50": "inactive"}]}, {"system": "A498", "assay": "Cytotoxicity against human A498 cells after 48 hrs by sulforhodamine B assay", "format": "functional", "conditions": "not given", "values": [{"smiles": "Oc1ccc(/C=C\\c2cc(O)cc(O)c2)cc1", "note": "[CIS-RESVERATROL]", "GI50": "inactive"}, {"smiles": "COc1ccc(/C=C\\c2cc(OC)c(OC)c(OC)c2)cc1O", "note": "[COMBRETASTATIN A4]", "GI50": "inactive"}, {"smiles": "COc1ccc(/C=C/c2cc(OC)c(OC)c(OC)c2)cc1O", "note": "[E-COMBRETASTATIN A-4]", "GI50": "inactive"}, {"smiles": "Oc1ccc(/C=C/c2cc(O)cc(O)c2)cc1", "note": "[RESVERATROL]", "GI50": "inactive"}]}, {"system": "P388", "assay": "Cytotoxicity against mouse P388 cells after 48 hrs by sulforhodamine B assay", "format": "functional", "conditions": "P388, 48 h, read-out: ED50 (the source's name)", "units": {"EC50": "µg/mL"}, "values": [{"smiles": "COc1ccc(/C=C\\c2cc(OC)c(OC)c(OC)c2)cc1O", "note": "[COMBRETASTATIN A4]", "EC50": 0.03}, {"smiles": "COc1ccc(/C=C/c2cc(OC)c(OC)c(OC)c2)cc1O", "note": "[E-COMBRETASTATIN A-4]", "EC50": 0.28}]}, {"system": "BXPC-3", "assay": "Cytotoxicity against human BxPC3 cells after 48 hrs by sulforhodamine B assay", "format": "functional", "conditions": "BXPC-3, 48 h", "units": {"GI50": "µg/mL"}, "values": [{"smiles": "COc1ccc(/C=C\\c2cc(OC)c(OC)c(OC)c2)cc1O", "note": "[COMBRETASTATIN A4]", "GI50": 0.39}, {"smiles": "COc1ccc(/C=C/c2cc(OC)c(OC)c(OC)c2)cc1O", "note": "[E-COMBRETASTATIN A-4]", "GI50": 3.9}]}, {"system": "MCF7", "assay": "Cytotoxicity against human MCF7 cells after 48 hrs by sulforhodamine B assay", "format": "functional", "conditions": "not given", "values": [{"smiles": "COc1ccc(/C=C\\c2cc(OC)c(OC)c(OC)c2)cc1O", "note": "[COMBRETASTATIN A4]", "GI50": "inactive"}, {"smiles": "COc1ccc(/C=C/c2cc(OC)c(OC)c(OC)c2)cc1O", "note": "[E-COMBRETASTATIN A-4]", "GI50": "inactive"}]}, {"system": "NCI-H460", "assay": "Cytotoxicity against human NCI-H460 cells after 48 hrs by sulforhodamine B assay", "format": "functional", "conditions": "NCI-H460, 48 h", "units": {"GI50": "µg/mL"}, "values": [{"smiles": "COc1ccc(/C=C\\c2cc(OC)c(OC)c(OC)c2)cc1O", "note": "[COMBRETASTATIN A4]", "GI50": 0.0006}, {"smiles": "COc1ccc(/C=C/c2cc(OC)c(OC)c(OC)c2)cc1O", "note": "[E-COMBRETASTATIN A-4]", "GI50": 0.038}]}, {"system": "not listed separately", "assay": "Inhibition of tubulin polymerization", "conditions": "not given", "units": {"IC50": "µM"}, "values": [{"smiles": "COc1ccc(/C=C\\c2cc(OC)c(OC)c(OC)c2)cc1O", "note": "[COMBRETASTATIN A4]", "IC50": 2.1}, {"smiles": "COc1ccc(/C=C/c2cc(OC)c(OC)c(OC)c2)cc1O", "note": "[E-COMBRETASTATIN A-4]", "IC50": 33}, {"smiles": "Oc1ccc(/C=C/c2cc(O)cc(O)c2)cc1", "note": "[RESVERATROL]", "IC50": "> 40"}]}, {"system": "DU-145", "assay": "Cytotoxicity against human DU145 cells after 48 hrs by sulforhodamine B assay", "format": "functional", "conditions": "DU-145, 48 h", "units": {"GI50": "µg/mL"}, "values": [{"smiles": "COc1ccc(/C=C\\c2cc(OC)c(OC)c(OC)c2)cc1O", "note": "[COMBRETASTATIN A4]", "GI50": 0.0008}, {"smiles": "COc1ccc(/C=C/c2cc(OC)c(OC)c(OC)c2)cc1O", "note": "[E-COMBRETASTATIN A-4]", "GI50": 0.037}]}, {"system": "SK-MEL-5", "assay": "Cytotoxicity against human SK-MEL-5 cells after 48 hrs by sulforhodamine B assay", "format": "functional", "conditions": "not given", "values": [{"smiles": "Oc1ccc(/C=C\\c2cc(O)cc(O)c2)cc1", "note": "[CIS-RESVERATROL]", "GI50": "inactive"}, {"smiles": "COc1ccc(/C=C\\c2cc(OC)c(OC)c(OC)c2)cc1O", "note": "[COMBRETASTATIN A4]", "GI50": "inactive"}, {"smiles": "COc1ccc(/C=C/c2cc(OC)c(OC)c(OC)c2)cc1O", "note": "[E-COMBRETASTATIN A-4]", "GI50": "inactive"}, {"smiles": "Oc1ccc(/C=C/c2cc(O)cc(O)c2)cc1", "note": "[RESVERATROL]", "GI50": "inactive"}]}, {"system": "KM-20L2", "assay": "(§2) Cytotoxicity against human KM20L2 cells after 48 hrs by sulforhodamine B assay", "format": "functional", "conditions": "not given", "values": [{"smiles": "COc1ccc(/C=C/c2cc(OC)c(OC)c(OC)c2)cc1O", "note": "[E-COMBRETASTATIN A-4]", "GI50": "inactive"}]}, {"system": "KM-20L2", "assay": "as §2", "format": "functional", "conditions": "KM-20L2, 48 h", "units": {"GI50": "µg/mL"}, "values": [{"smiles": "Oc1ccc(/C=C\\c2cc(O)cc(O)c2)cc1", "note": "[CIS-RESVERATROL]", "GI50": 22}, {"smiles": "COc1ccc(/C=C\\c2cc(OC)c(OC)c(OC)c2)cc1O", "note": "[COMBRETASTATIN A4]", "GI50": 0.34}]}, {"system": "OVCAR-3", "assay": "Cytotoxicity against human OVCAR-3 cells after 48 hrs by sulforhodamine B assay", "format": "functional", "conditions": "not given", "values": [{"smiles": "Oc1ccc(/C=C\\c2cc(O)cc(O)c2)cc1", "note": "[CIS-RESVERATROL]", "GI50": "inactive"}, {"smiles": "COc1ccc(/C=C\\c2cc(OC)c(OC)c(OC)c2)cc1O", "note": "[COMBRETASTATIN A4]", "GI50": "inactive"}, {"smiles": "COc1ccc(/C=C/c2cc(OC)c(OC)c(OC)c2)cc1O", "note": "[E-COMBRETASTATIN A-4]", "GI50": "inactive"}, {"smiles": "Oc1ccc(/C=C/c2cc(O)cc(O)c2)cc1", "note": "[RESVERATROL]", "GI50": "inactive"}]}]}
